Reference: patent US7223781B2 (Beiersdorf AG, priority 2001, dated 2007)
Where two headings read alike, the source gives them in different places. Each block holds one compound with its values, some of them ahead of it.

How the values were obtained:
[1] = target: T1, COX-1 (Sus scrofa, UniProt A0A287ANF9); assay: In-vitro test for COX-1 inhibition: fluorimetric quantification of malonaldehyde (MDA) in A23187-activated pig platelet suspension; assay type: cell-based; settings: for inhibition of COX-1 (in words): comparison of both isoenzymes
T1 construct: A platelet suspension obtained from pig's blood is preincubated with the test substance; endogenous in cells; host or cells: platelets from pig's blood
T1 sequence (A0A287ANF9 25-600): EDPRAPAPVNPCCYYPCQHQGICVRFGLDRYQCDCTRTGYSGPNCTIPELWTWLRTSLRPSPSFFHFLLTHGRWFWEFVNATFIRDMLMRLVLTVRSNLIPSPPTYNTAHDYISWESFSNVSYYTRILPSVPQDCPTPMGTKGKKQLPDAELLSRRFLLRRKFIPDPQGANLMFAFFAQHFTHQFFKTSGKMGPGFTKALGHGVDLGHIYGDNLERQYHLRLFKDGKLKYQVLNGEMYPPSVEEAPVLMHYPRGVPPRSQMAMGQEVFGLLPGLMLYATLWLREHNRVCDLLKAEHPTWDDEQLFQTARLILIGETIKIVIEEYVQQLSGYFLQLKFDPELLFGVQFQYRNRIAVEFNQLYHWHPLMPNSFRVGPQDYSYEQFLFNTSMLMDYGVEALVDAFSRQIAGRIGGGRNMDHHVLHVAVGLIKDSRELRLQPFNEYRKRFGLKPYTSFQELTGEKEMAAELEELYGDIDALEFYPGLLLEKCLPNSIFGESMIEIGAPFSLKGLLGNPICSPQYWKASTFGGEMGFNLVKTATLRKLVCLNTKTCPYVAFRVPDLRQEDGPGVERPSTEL
Method: In-vitro Test Procedure for the Determination of COX-1 Inhibition
The inhibition of the cyclooxygenase pathway is carried out by fluorimetric quantification of malonaldehyde (MA). This condenses in the acidic medium with twice the molar amount of thiobarbituric acid to give a red pigment dye, which has a fluorescence at λExcitation: 533 nm, λEmission: 550 nm.
A platelet suspension obtained from pig's blood is preincubated with the test substance for 10 min at 37° C. The concentration of the suspension should be 8×10^8 cells/ml. The arachidonic acid cascade is then activated by addition of the antibiotic calcium ionophore A23187 ([…]). After a further 10 min at 37° C., the reaction is stopped using a trichloroacetic acid solution. The samples are centrifuged and the supernatant is incubated with thiobarbituric acid for 30 min at 70° C. After cooling (30 min at room temperature), the samples are measured fluorimetrically at 533/550 nm and the IC50 values of the test compounds are determined therefrom by means of a calibration curve.

[2] = target: T2, COX-2 (Homo sapiens, UniProt P35354); assay: In-vitro test for COX-2 inhibition: PGE2 ELISA in LPS-stimulated human monocytes; assay type: cell-based; settings: for IC50: Table 18, LPS-stimulated human monocytes, PGE2; for inhibition of COX-2 (in words): comparison of both isoenzymes
T2 construct: endogenous in cells; host or cells: LPS-stimulated human monocytes (Ficoll extraction)
T2 sequence (P35354 18-604): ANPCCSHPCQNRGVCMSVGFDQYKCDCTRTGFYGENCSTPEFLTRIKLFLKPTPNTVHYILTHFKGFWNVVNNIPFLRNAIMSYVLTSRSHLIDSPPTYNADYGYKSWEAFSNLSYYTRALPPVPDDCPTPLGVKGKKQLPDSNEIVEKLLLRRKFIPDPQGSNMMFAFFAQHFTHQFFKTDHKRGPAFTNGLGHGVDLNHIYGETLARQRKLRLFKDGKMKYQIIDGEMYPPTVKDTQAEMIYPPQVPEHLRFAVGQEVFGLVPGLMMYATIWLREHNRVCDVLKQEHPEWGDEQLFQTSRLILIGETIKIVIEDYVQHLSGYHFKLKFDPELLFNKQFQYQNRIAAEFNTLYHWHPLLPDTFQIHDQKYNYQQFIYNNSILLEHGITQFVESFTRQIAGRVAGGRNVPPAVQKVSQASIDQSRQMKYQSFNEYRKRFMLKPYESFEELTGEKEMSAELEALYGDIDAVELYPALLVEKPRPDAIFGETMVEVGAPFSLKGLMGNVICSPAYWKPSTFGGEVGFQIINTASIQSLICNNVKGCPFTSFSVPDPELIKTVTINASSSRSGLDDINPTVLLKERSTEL
Method: In-vitro Test Procedure for the Determination of COX-2 Inhibition
The procedure is carried out on LPS-stimulated human monocytes which have been obtained by Ficoll extraction. The measurement variable used is the PGE2 formed, which is determined by means of ELISA.

[3] = Table 17, methyl derivatives, pig platelets, read-out: MDA pIC50 (converted)
[4] = read-out: COX-2 inhibition pIC50 (converted)
[5] = Table 2, sulfanylacetamides, pig platelets, read-out: MDA pIC50 (converted)
[6] = read-out: COX-2 inhibition IC50
[7] = tables 1 to 17, read-out: IC50 values (inhibition of cyclooxygenase-1)
[8] = Table 9, alkylamides, pig platelets, read-out: MDA pIC50 (converted)
[9] = Table 8, arylsulfonamides, pig platelets, read-out: MDA pIC50 (converted)
[10] = Table 7, arylamides, pig platelets, read-out: MDA pIC50 (converted)

SMILES: COc1ccc(-c2nc(SCCN(C)C(=O)c3ccccc3)[nH]c2-c2ccc(OC)cc2)cc1 [Compound T29, N^1-{2-[4,5-Bis(4-methoxyphenyl)-1H-imidazol-2ylsulfanyl]ethyl}-N^1-1-methylbenzamide]
IC50 [1, 3]: 20.9 nM
inhibition of COX-1 (in words) [1]: approximately equally high potency
IC50 [2, 4]: 10 nM
inhibition of COX-2 (in words) [2]: approximately equally high potency

SMILES: COc1ccc(-c2nc(SC(C(C)=O)C(=O)N(C)C)[nH]c2-c2ccc(OC)cc2)cc1 (centres unmarked) [Compound T7, N^1,N^1-Dimethyl-2-[4,5-bis(4-methoxyphenyl)-1H-imidazol-2-ylsufanyl]-3-oxobutanamide]
IC50 [1, 5]: 33.1 nM
IC50 [2, 6]: 500 nM

SMILES: COc1ccc(-c2nc(SCC(=O)c3ccccc3)[nH]c2-c2ccc(OC)cc2)cc1 [Compound T11, 2-[4,5-Bis(4-methoxyphenyl)-1H-imidazol-2-ylsulfanyl]-1-phenylethan-1-one]
IC50 ([1]; Table 4, aryl ketones, pig platelets, read-out: MDA IC50): 9.5 nM
IC50 [1, 7]: ~1 nM
IC50 [2, 4]: 257 nM

SMILES: COc1ccc(-c2nc(SCC(=O)N(C)C)[nH]c2-c2ccc(OC)cc2)cc1 [Compound T6, N^1N^1-Dimethyl-2-[4,5-bis(4-methoxyphenyl)-1H-imidazol-2-ylsulfanyl]-acetamide]
IC50 [1, 5]: 10 nM
IC50 ([1]; Table 15, N,N-acetamides, pig platelets, read-out: MDA pIC50 (converted)): 10 nM
IC50 [2, 4]: 2290 nM

SMILES: COc1ccc(-c2nc(SCCNS(=O)(=O)c3ccc(Cl)cc3)[nH]c2-c2ccc(OC)cc2)cc1 [Compound T18, N-hu 1-{2-[4,5-Bis(4-methoxyphenyl)-1H-imidazol-2-ylsufanyl]ethyl}-4-chlorobenzenesulfonamide]
IC50 [1, 9]: 282 nM
IC50 [2, 4]: 3020 nM

SMILES: COc1ccc(-c2nc(SCCNS(=O)(=O)c3cc(C(F)(F)F)cc(C(F)(F)F)c3)[nH]c2-c2ccc(OC)cc2)cc1 [Compound T22, N^1-{2-[4,5-Bis(4-methoxyphenyl)-1H-imidazol-2-ylsufanyl]ethyl}-3,5-bis-(trifluoromethyl)benzenesulfonamide]
IC50 [1, 9]: 407 nM
IC50 [2, 4]: 1510 nM

SMILES: CCN(CC)C(=O)Sc1nc(-c2ccc(OC)cc2)c(-c2ccc(OC)cc2)[nH]1 [Compound T2, [4,5-Bis(4-methoxyphenyl)-1H-imidazol-2-yl]-N,N-diethylcarbamic acid thioester]
IC50 ([1]; Table 1, carbamic acid thioesters, pig platelets, read-out: MDA IC50): 4.8 nM
IC50 [1, 7]: ~1 nM
IC50 [2, 4]: 2400 nM

SMILES: COc1ccc(-c2nc(SCCNS(=O)(=O)c3ccc(NC(C)=O)cc3)[nH]c2-c2ccc(OC)cc2)cc1 [Compound T27, N^1-(4-{2-[4,5-Bis(4-methoxyphenyl)-1H-imidazol-2-ylsufanyl]ethyl-sulfamoyl}phenyl)acetamide]
IC50 [1, 9]: 18.2 nM
IC50 [2, 4]: 1200 nM

SMILES: COc1ccc(-c2nc(SCCC(=O)c3ccccc3)[nH]c2-c2ccc(OC)cc2)cc1 [Compound T13, 3-[4,5-Bis(4-methoxyphenyl)-1H-imidazol-2-ylsufanyl]-1-phenylpropan-1-one]
IC50 ([1]; Table 4, aryl ketones, pig platelets, read-out: MDA pIC50 (converted)): 20.9 nM

SMILES: COc1ccc(-c2nc(SCC(=O)Nc3ccccc3)[nH]c2-c2ccc(OC)cc2)cc1 [Compound T9, N^1-Phenyl-2-[4,5-bis(4-methoxyphenyl)-1H-imidazol-2-ylsufanyl]acetamide]
IC50 [1, 5]: 34.7 nM

SMILES: COc1ccc(-c2nc(SCCNC(=O)c3ccccc3)n(C)c2-c2ccc(OC)cc2)cc1 [Compound T30, N^1-{2-[4,5-Bis(4-methoxyphenyl)-1-methyl-1H-imidazol-2-ylsufanyl]-ethyl}benzamide]
IC50 [1, 3]: 41.7 nM

Second part, the compound after the results:

IC50 ([1]; Table 6, N1-acetic acid derivatives, pig platelets, read-out: MDA IC50): 490 nM
inhibition of COX-1 (in words) [1]: medium-strong inhibition
IC50 [2, 4]: 1000 nM
inhibition of COX-2 (in words) [2]: medium-strong inhibition
SMILES: COc1ccc(-c2c(-c3ccc(Cl)cc3)nc(SCc3ccccn3)n2CC(=O)O)cc1 [Compound T109, 2-[4-(4-Chlorophenyl)-5-(4-methoxyphenyl)-2-(2-pyridylmethylsulfanyl) -1H-imidazol-1-yl]acetic acid]

IC50 ([1]; Table 16, dimethyl compounds, pig platelets, read-out: MDA pIC50 (converted)): 83.2 nM
IC50 [2, 6]: 910 nM
SMILES: COc1ccc(-c2nc(SCCN(C)C(=O)c3ccccc3)n(C)c2-c2ccc(OC)cc2)cc1 [Compound T31]

IC50 [1, 8]: 10 nM
IC50 [2, 4]: 2690 nM
SMILES: COc1ccc(-c2nc(SCCNC(C)=O)[nH]c2-c2ccc(OC)cc2)cc1 [Compound T49, N^1-{2-[4,5-Bis(4-methoxyphenyl)-1H-imidazol-2-ylsulfanyl]ethyl}acetamide]

IC50 ([1]; Table 13, urea derivatives, pig platelets, read-out: MDA IC50): 78 nM
IC50 [2, 4]: 209 nM
SMILES: COc1ccc(-c2nc(SCCNC(=O)N(C)C)[nH]c2-c2ccc(OC)cc2)cc1 [Compound T57, N^1-{2-[4,5-Bis(4-methoxyphenyl)-1H-imidazol-2-ylsulfanyl]ethyl}-N′,N′-dimethylurea]

IC50 ([1]; Table 5, heteroarylmethyl sulfides, pig platelets, read-out: MDA pIC50 (converted)): 100 nM
IC50 ([1]; Table 14, sulfones and their sulfide analogs, pig platelets, read-out: MDA pIC50 (converted)): 100 nM
IC50 [2, 4]: 240 nM
SMILES: COc1ccc(-c2nc(SCc3ccccn3)[nH]c2-c2ccc(OC)cc2)cc1 [Compound T69, 2-[4,5-Bis(4-methoxyphenyl)-1H-imidazol-2-ylsulfanylmethyl]pyridine]

IC50 [1, 8]: 1100 nM
IC50 [2, 4]: 2690 nM
SMILES: CC(=O)NCCSc1nc(-c2ccc(Cl)cc2)c(-c2ccc(Cl)cc2)[nH]1 [Compound T84, N^1-{2-[4,5-Bis(4-chlorophenyl)-1H-imidazol-2-ylsufanyl]ethyl}acetamide]

IC50 [1, 9]: 129 nM
IC50 [2, 6]: 800 nM
SMILES: COc1ccc(-c2[nH]c(SCCNS(=O)(=O)c3ccc(Cl)cc3)nc2-c2ccc(Cl)cc2)cc1 [Compound T111, N^1-{2-[4-(4-Chlorophenyl)-5-(4-methoxyphenv)-1H-imidazol-2-yl-sufanyl]ethyl}-4-chlorobenzenesulfonamide]

IC50 ([1]; Table 1, carbamic acid thioesters, pig platelets, read-out: MDA pIC50 (converted)): 158 nM
IC50 [2, 4]: 1000 nM
SMILES: CCN(CC)C(=O)Sc1nc(-c2ccc(Cl)cc2)c(-c2ccc(OC)cc2)[nH]1 [Compound T108, [4-(4-Chlorophenyl)-5-(4-methoxyphenyl)-1H-imidazol-2-yl]-N N-diethyl-carbamic acid thioester]

IC50 [1, 10]: 3310 nM
SMILES: COc1ccc(-c2[nH]c(SCCNC(=O)c3ccccc3)nc2-c2ccc(Cl)cc2)cc1 [Compound T110, N^1-{2-[4-(4-Chlorophenyl)-5-(4-methoxyphenv)-1H-imidazol-2-yl-sufanyl]ethyl}benzamide]

IC50 ([1]; Table 14, sulfones and their sulfide analogs, pig platelets, read-out: MDA IC50): 81 nM
SMILES: COc1ccc(-c2nc(S(=O)(=O)Cc3ccccn3)[nH]c2-c2ccc(OC)cc2)cc1 [Compound T74, 2-[4,5-Bis(4-methoxyphenyl)-1H-imidazol-2-ylsulfonylmethyl]pyridine]

IC50 ([1]; Table 11, heteroaryl- and naphthylamides, pig platelets, read-out: MDA pIC50 (converted)): 39.8 nM
SMILES: COc1ccc(-c2nc(SCCNC(=O)c3ccc4ccccc4c3)[nH]c2-c2ccc(OC)cc2)cc1 [Compound T56, N^1-{2-[4,5-Bis(4-methoxyphenyl)-1H-imidazol-2-ylsulfanyl]ethyl}-2-naphthamide]

IC50 [1, 10]: 2090 nM
SMILES: O=C(NCCSc1nc(-c2ccccc2)c(-c2ccccc2)[nH]1)c1ccccc1 [Compound T94]
